# In patent publication US20210130826A1, “METHODS OF MODULATING ANTISENSE ACTIVITY” (IONIS PHARMACEUTICALS, INC., priority 2018, published 2021):
# How the values were obtained:
# [1] = tested on: Malat-1; assay: MALAT-1 RNA in mouse liver by RT-qPCR; type: in vivo
# Procedure: The following experiments were performed to determine if the effects of autophagy modulators on antisense activity in vitro can be observed in vivo. […] Mice were sacrificed at 24 hours after administration of the modified oligonucleotide and tissues were collected for analysis. […] Atg7 mRNA levels are a marker of the induction of autophagy in treated mouse livers. Results are presented as percent change of RNA, relative to PBS control treated with DMSO, normalized to mouse cyclophilin A measured using mouse primer probe set Cyclophilin-A (forward sequence [NT], designated herein as SEQ ID NO: 38; reverse sequence [NT], designated herein as SEQ ID NO: 39; probe sequence [NT], designated herein as SEQ ID NO: 40). […] Following administration of modified oligonucleotide, groups of mice were either allowed free access to chow (control) or fasted overnight (16 hr fast). Mice were sacrificed at 16 hours after administration of the modified oligonucleotide and tissues were collected for analysis. […] Atg7 mRNA levels are a marker of the induction of autophagy in treated mouse livers. Results are presented in Table 33 relative to mice treated with PBS and allowed normal access to chow. […] Mice were sacrificed at 24 hours after administration of the modified oligonucleotide and tissues were collected for analysis. […] Atg7 mRNA levels are a marker of the induction of autophagy in treated mouse livers. […] RNA was extracted from liver tissue for real-time RTPCR analysis of MALAT1 RNA expression. Primer probe set 15877 was used to measure mouse MALAT1 RNA levels. Results are presented as percent change of RNA, relative to PBS control, normalized to mouse cyclophilin A measured using mouse primer probe set Cyclophilin-A. […] RNA was extracted from liver tissue for real-time RTPCR analysis of MALAT1 RNA expression. Primer probe set 15877 was used to measure mouse MALAT1 RNA levels. Results are presented as percent change of RNA, relative to PBS control, normalized to mouse cyclophilin A measured using mouse primer probe set Cyclophilin-A.
# [2] = tested on: Atg7; assay: Atg7 mRNA in mouse liver by RT-qPCR; type: in vivo; settings: Table 31; mouse liver 24 h; oligonucleotide 5 mg/kg; AZD8055 5 mg/kg at 0, 12, 22 h
# Procedure: The following experiments were performed to determine if the effects of autophagy modulators on antisense activity in vitro can be observed in vivo. […] Mice were sacrificed at 24 hours after administration of the modified oligonucleotide and tissues were collected for analysis. […] Atg7 mRNA levels are a marker of the induction of autophagy in treated mouse livers. Results are presented as percent change of RNA, relative to PBS control treated with DMSO, normalized to mouse cyclophilin A measured using mouse primer probe set Cyclophilin-A (forward sequence [NT], designated herein as SEQ ID NO: 38; reverse sequence [NT], designated herein as SEQ ID NO: 39; probe sequence [NT], designated herein as SEQ ID NO: 40). […] Following administration of modified oligonucleotide, groups of mice were either allowed free access to chow (control) or fasted overnight (16 hr fast). Mice were sacrificed at 16 hours after administration of the modified oligonucleotide and tissues were collected for analysis. […] Atg7 mRNA levels are a marker of the induction of autophagy in treated mouse livers. Results are presented in Table 33 relative to mice treated with PBS and allowed normal access to chow. […] Mice were sacrificed at 24 hours after administration of the modified oligonucleotide and tissues were collected for analysis. […]
compound,measurement,setting,value
COc1ccc(-c2ccc3c(N4CCOC[C@@H]4C)nc(N4CCOC[C@@H]4C)nc3n2)cc1CO [AZD8055],Malat-1 level (% relative to PBS/DMSO-treated mice),"[1]; Table 31, mouse liver 24 h, oligonucleotide 5 mg/kg, AZD8055 5 mg/kg at 0, 12, 22 h",121%
same,effect on ASO activity in vivo (in words),"[1]; mouse liver, 399462 5 mg/kg, AZD8055 5 mg/kg",greater Malat1 RNA reduction
same,Atg7 level (% relative to PBS/DMSO-treated mice),[2],112%
